This is an account of results in patent publication US10206902B2, “Mono- or di-substituted indoles as dengue viral replication inhibitors” (priority 2014, dated 2019).

Each structure is given as a SMILES string.

One data set relates to Vero cells. Kind of data set: in vitro. The data set is classed as cell-based. Conditions: African green monkey. As to the method:
(§1) In parallel, the toxicity of the compounds was assessed on the same plates. Once the read-out for the eGFP signal was done, 10 μL of resazurin, a cell viability stain, was added to all wells of the 384-well plates. The resazurin assay is based on the reduction of the blue resazurin by NADH, produced by the cells, into the highly fluorescent product, resorufin. The formation of pink fluorescent resorufin is directly related to the number of viable cells in the well. The plates were incubated for an additional 5 hours in a fully humidified incubator (37° C., 5% CO2). Next, the plates were measured on an Infinite reader (Tecan) using an excitation wavelength of 530 nm. The half maximal cytotoxic concentration (CO50) was also determined, defined as the concentration required to reduce the resazurin conversion by 50% compared to that of the cell control wells (Table 1). Finally, the selectivity index (SI) was determined for the compounds, which was calculated as followed: SI=CC50/EC50.

The subject of another data set is DENV-2 16681 strain. As to the kind of experiment: DENV-2 antiviral assay (eGFP-labelled virus in Vero cells). It counts as cell-based, Dengue virus. Conditions: DENV-2 16681 eGFP, MOI 0.5, 3 days. As to the method: The antiviral activity of all the compounds of the invention was tested against DENV-2 16681 strain which was labeled with enhanced green fluorescent protein (eGPF). The culture medium consists of minimal essential medium supplemented with 2% of heat-inactivated fetal calf serum, 0.04% gentamycin (50 mg/mL) and 2 mM of L-glutamine. Vero cells, obtained from ECACC, were suspended in culture medium and 25 μL was added to 384-well plates (2500 cells/well), which already contain the antiviral compounds. Typically, these plates contain a 4-fold serial dilution of 9 dilution steps of the test compound at 200 times the final concentration in 100% DMSO (200 nL). In addition, each compound concentration is tested in quadruplicate (final concentration range: 25 μM-0.00038 μM). Finally, each plate contains wells which are assigned as virus controls (containing cells and virus in the absence of compound), cell controls (containing cells in the absence of virus and compound) and medium controls (containing medium in the absence of cells, virus and compounds). To the wells assigned as medium control, 25 μL of culture medium was added instead of Vero cells. Once the cells were added to the plates, the plates were incubated for 30 minutes at room temperature to allow the cells to distribute evenly within the wells. Next, the plates were incubated in a fully humidified incubator (37° C., 5% CO2) until the next day. Then, DENV-2 strain 16681, labeled with eGFP, was added at a multiplicity of infection (MOI) of 0.5. Therefore, 15 μL of virus suspension was added to all the wells containing test compound and to the wells assigned as virus control. In parallel, 15 μL of culture medium was added to the medium and cell controls. Next, the plates were incubated for 3 days in a fully humidified incubator (37° C., 5% CO2). At the day of the read out, the eGFP fluorescence was measured using an automated fluorescence microscope at 488 nm (blue laser). Using an in-house LIMS system, inhibition dose response curves for each compound were calculated and the half maximal effective concentration (EC50) was determined. Therefore, the percent inhibition (I) for every test concentration is calculated using the following formula: I=100*(ST−SCC)/(SVC−SCC); ST, SCC and SVC are the amount of eGFP signal in the test compound, cell control and virus control wells, respectively. The EC50 represents the concentration of a compound at which the virus replication is inhibited with 50%, as measured by a 50% reduction of the eGFP fluorescent intensity compared to the virus control. The EC50 is calculated using linear interpolation (Table 1).

A short description of the next data set: in vitro. It counts as cell-based. The note with it: African green monkey, CC50. As to the method: as §1

As to `COc1cc(NC(C(=O)c2c[nH]c3cc(OC)c(F)cc23)c2ccc(F)cc2OC)cc(OCCO)c1` (single isomer, unassigned) [Compound 7B, 2-(4-fluoro-2-methoxyphenyl)-1-(5-fluoro-6-methoxy-1H-indol-3-yl)-2-((3-(2-hydroxyethoxy)-5-methoxyphenyl)amino)ethanone], the half-maximal cytotoxic concentration (CC50) in the data set on Vero cells is 14 µM. In the data set with DENV-2 16681 strain, this molecule gave a half-maximal effective concentration (EC50) of 0.54 µM.

With `COc1cc(NC(C(=O)c2c[nH]c3c(C)cc(F)cc23)c2ccc(F)cc2OC)cc(OCCO)c1` (racemic) [Compound 9, 2-(4-fluoro-2-methoxyphenyl)-1-(5-fluoro-7-methyl-1H-indol-3-yl)-2-((3-(2-hydroxyethoxy)-5-methoxyphenyl)amino)ethanone], the melting point is 179 °C. This molecule showed a CC50 in “in vitro” of 7.5 µM. For the same molecule, the EC50 in the data set on DENV-2 16681 strain (Dengue virus, DENV2, Vero, 72 h) is 0.0094 µM.
